From patent publication US20110111400A1, “METHOD FOR ENHANCING CHEMICAL SENSITIVITY OR RADIOSENSITIVITY OF CANCER CELLS BY INHIBITING EXPRESSION OF TSPYL5” (Korea Atomic Energy Research Institute, priority 2009, published 2011)

What was measured:
[1] = system: TSPYL5 gene; assay: RT-PCR of TSPYL5 expression level after siRNA transduction, A549; type: cell-based, human; settings: A549 cells, 40~80 nM RNAi, compared to siControl
Experimental: (§1) In order to compare the expression levels of TSPYL5 in lung cancer cell lines A549, H460, and H1299, reverse transcription polymerase chain reaction (RT-PCR) was performed. The RT-PCR was performed in the following manner: a mixture of 10 mM dNTPs, 5×RT buffer, 0.5 μg/μl oligo dT, addition of each of 4 μg of heat denaturated (70° C., 10 min) total RNA of lung cancer cell lines H460, A549, and H1299, and 200 U/μl M-MLV RTase, 0.02% diethyl pyrocarbonate (DEPC)-treated sterilized water to a final volume of 20 μl, followed by reaction at 45° C. for 30 min. Next, the mixture was heated to 94° C. for 5 min, and then snap-cooled on ice to deactivate the M-MLV RTase. 1 μl of the cDNA synthesized by the method was mixed with 10× buffer (MgCl2 free), 2.5 mM dNTPs, 10× MgCl2, and Taq DNA polymerase. 10 pmol of primer for TSPYL5 or β-actin was added to the mixture and amplified under the following conditions. Then, for TSPYL5 primer, EcoRI/Forward: 5′-[…]-3′ represented by SEQ ID No: 3 as a forward primer and EcoRI/reverse: 5′-CCGGAATTCTC AGTTGGATTGGCTCACCCC-3′ represented by SEQ ID NO: 4 as a reverse primer were used. Pre-denaturation at 94° C. for 5 min, denaturation at 94° C. for 1 min, annealing at 60° C. for 1.5 min, cycles of elongation at 72° C. for 1 min were performed, followed by post-elongation at 72° C. for 10 min. […]

[2] = system: TSPYL5 gene; assay: RT-PCR of TSPYL5 expression level after siRNA transduction, H1299; type: cell-based, human; settings: H1299 cells, 40~80 nM RNAi, compared to siControl
Experimental: as §1

C2-131714: 25mer TSPYL5 stealth-RNAi duplex oligoribonucleotide, SEQ ID Nos: 10 and 11 (chain 1 AAAGGUAGAACUGCAAGGGAUUGGG; chain 2 CCCAAUCCCUUGCAGUUCUACCUUU; Invitrogen Stealth RNAi, modifications not given here)
expression levels of TSPYL5 [1]: reduced the most effectively | expression levels of TSPYL5 [2]: reduced the most effectively
